The test system of one assay is mouse bone marrow HSCs. The assay can be described thus: Number of mouse bone marrow HSCs collected and processed with antioxidants or epigenetic inhibitors (flow cytometry). Type of assay: cell-based. Particulars: collected in ambient air. (A flow cytometer gives signals particle by particle.)
For another assay, the system named is mouse bone marrow HSC. Particulars: ambient air (about 21% O2); cited from earlier work.
For a further assay, the system named is human cord blood HSC. Particulars: ambient air (about 21% O2); cited from earlier work.

As to `O=C1O[C@H]([C@@H](O)CO)C(O)=C1OP(=O)(O)O` [AAP, ascorbic acid 2-phosphate], in the assay with mouse bone marrow HSCs (AAP alone (0.22 mM)), the “increase in numbers of HSC” value is reported as “not AAP alone, significantly increased”.

Turning to cyclosporine A, the “numbers of HSC” value with mouse bone marrow HSC and in the assay on human cord blood HSC was “increased numbers of HSC” in each case.

In the case of `CC(=O)N[C@@H](CS)C(=O)O` [NAC, N-Acetyl-Cysteine], the “change in numbers of collected HSCs” value in the assay with mouse bone marrow HSCs (1 mM NAC) was “no significant change”. In addition, the “increase in numbers of collected HSCs” value in the assay with mouse bone marrow HSCs (higher dose of NAC (3 mM)) was “no increase”.

(Values after US11883435B2, “Compositions and methods for treating a clinical condition through the use of hematopoietic stem cells” (Indiana University Research and Technology Corporation, priority 2017, dated 2024).)
